Measurements published in publication PMC10119128, “Parkinson’s disease-associated ATP13A2/PARK9 functions as a lysosomal H^+,K^+-ATPase” (Nature Communications, 2023).

Assays:
[1] = biological target: T1, ATP13A2 (Homo sapiens, UniProt Q9NQ11); assay: ΔTG-sensitive ATPase activity in membrane fractions, mock control; […]+ efflux; siRNA knockdown in SH-SY5Y; assay type: biochemical
T1 construct: full-length, N-terminal Xpress-tag, membrane fractions of transfected HEK293 cells
T1 sequence (Q9NQ11 1-1180): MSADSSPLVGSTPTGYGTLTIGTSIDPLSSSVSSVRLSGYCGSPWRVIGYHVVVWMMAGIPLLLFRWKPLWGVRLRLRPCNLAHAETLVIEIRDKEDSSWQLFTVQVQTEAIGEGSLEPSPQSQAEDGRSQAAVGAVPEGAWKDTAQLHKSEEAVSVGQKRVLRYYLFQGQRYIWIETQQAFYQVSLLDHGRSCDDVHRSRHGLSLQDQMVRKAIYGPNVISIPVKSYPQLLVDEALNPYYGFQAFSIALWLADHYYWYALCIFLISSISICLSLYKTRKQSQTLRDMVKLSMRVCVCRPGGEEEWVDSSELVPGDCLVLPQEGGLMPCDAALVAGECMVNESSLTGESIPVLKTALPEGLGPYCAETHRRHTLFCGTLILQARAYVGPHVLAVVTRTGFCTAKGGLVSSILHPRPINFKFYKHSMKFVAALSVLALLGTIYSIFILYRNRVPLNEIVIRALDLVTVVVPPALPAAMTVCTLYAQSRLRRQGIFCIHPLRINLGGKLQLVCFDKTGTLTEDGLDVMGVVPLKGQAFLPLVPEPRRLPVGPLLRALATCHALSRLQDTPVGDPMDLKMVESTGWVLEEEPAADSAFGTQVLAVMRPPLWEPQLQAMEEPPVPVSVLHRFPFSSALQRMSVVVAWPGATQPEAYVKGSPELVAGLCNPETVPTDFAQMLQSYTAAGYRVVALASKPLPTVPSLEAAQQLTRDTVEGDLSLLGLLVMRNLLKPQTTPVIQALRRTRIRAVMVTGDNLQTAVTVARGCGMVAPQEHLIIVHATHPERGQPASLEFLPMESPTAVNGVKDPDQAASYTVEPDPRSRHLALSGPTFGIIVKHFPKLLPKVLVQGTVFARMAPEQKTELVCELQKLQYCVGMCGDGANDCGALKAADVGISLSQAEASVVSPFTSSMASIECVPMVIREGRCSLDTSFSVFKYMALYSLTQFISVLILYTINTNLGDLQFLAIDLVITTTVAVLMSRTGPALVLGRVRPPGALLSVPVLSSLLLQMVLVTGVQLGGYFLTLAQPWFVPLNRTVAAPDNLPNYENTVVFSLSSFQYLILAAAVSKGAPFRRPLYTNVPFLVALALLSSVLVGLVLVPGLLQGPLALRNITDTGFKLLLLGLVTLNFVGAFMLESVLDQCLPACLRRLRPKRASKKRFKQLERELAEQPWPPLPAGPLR

[2] = biological target: T1, ATP13A2; assay: ΔTG-sensitive ATPase activity in membrane fractions, mock control; […]+ efflux; assay type: biochemical

Question: How did the IC50 [1] turn out when `CNCc1cc(-c2ccccc2F)n(S(=O)(=O)c2cccnc2)c1` [vonoprazan] was run?
Answer: 0.8 µM

Question: Which IC50 [1] does the source give for `Cc1nc2c(OCc3ccccc3)cccn2c1CC#N` [SCH28080] here?
Answer: 1.2 µM

Question: For `CO/C1=C\C(C)=C\[C@@H](C)[C@@H](O)[C@@H](C)C/C(C)=C/C=C/[C@H](OC)[C@@H]([C@@H](C)[C@@H](O)[C@H](C)[C@@]2(O)C[C@@H](O)[C@H](C)[C@@H](C(C)C)O2)OC1=O` [bafilomycin A1], which IC50 [2] is on record?
Answer: 0.0005 µM
